# Laboratory results published in patent US20250034139A1, “AMINE COMPOUNDS HAVING ANTI-INFLAMMATORY, ANTIFUNGAL, ANTIPARASITIC, AND ANTICANCER ACTIVITY” (PHARMA CINQ, LLC, priority 2013, published 2025).
# Test system: Candida albicans strain 3153
# Assay: Example H: Candida albicans growth inhibition (OD 600 nm)
# Format: cell-based
# Conditions: Candida albicans, 3153, 24 hrs at 30° C., YPD, XLfit, read-out: MIC (uM) (99% of inhibition of fungal growth)
# In short: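 Growth inhibition computed as % versus DMSO control from OD600 after ~24 h at 30° C. Inoculum: washed overnight YPD culture of strain 3153 at 3.5×10^4 CFU/ml in YPD; final compound concentrations 0, 5, 10, 16, 22, 30, 40 μM, duplicate wells.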
row,Compound,MIC [µM]
1,"CCCCCCOc1ccc(CNc2ccnc3ccccc23)cc1 [AA, N-[4-(Hexyloxy)benzyl]quinolin-4-amine]",27.3
2,"c1ccc(Oc2cccc(CNc3ccnc4ccccc34)c2)cc1 [AF, N-(3-Phenoxybenzyl)quinolin-4-amine]",74.2
3,"CCCCOCCCCCCCCCCNc1ccnc2ccccc12 [AM, N-(10-Butoxydecyl)quinolin-4-amine]",16.2
4,"CCCCCCOCCCCCCCCn1cnc2cnccc21 [AS, 1-[8-(Hexyloxy)octyl]-1H-imidazo[4,5-c]pyridine]",37.8
5,"CCCCOCCCCCCCCCCn1cnc2cnccc21 [AT, 1-(10-Butoxydecyl)-1H-imidazo[4,5-c]pyridine]",51.2
6,"CCCCCCOCCCCCCCCNc1ccncn1 [AU, N-[8-(Hexyloxy)octyl]pyrimidin-4-amine]",30.9
7,"CCCCCCOCCCCCCCCNc1cc(C)nc2ccccc12 [AV, N-[8-(Hexyloxy)octyl]-2-methylquinolin-4-amine]",19.8

# Same assay, conditions: Candida albicans, 3153, read-out: IC50 (uM) (50% inhibition of fungal growth), 24 hrs at 30° C., YPD, XLfit
row,Compound,IC50 [µM]
1,"CCCCCCOc1ccc(CNc2ccnc3ccccc23)cc1 [AA, N-[4-(Hexyloxy)benzyl]quinolin-4-amine]",11
2,"c1ccc(Oc2cccc(CNc3ccnc4ccccc34)c2)cc1 [AF, N-(3-Phenoxybenzyl)quinolin-4-amine]",45.5
3,"CCCCOCCCCCCCCCCNc1ccnc2ccccc12 [AM, N-(10-Butoxydecyl)quinolin-4-amine]",6.52
4,"CCCCCCOCCCCCCCCn1cnc2cnccc21 [AS, 1-[8-(Hexyloxy)octyl]-1H-imidazo[4,5-c]pyridine]",15.3
5,"CCCCOCCCCCCCCCCn1cnc2cnccc21 [AT, 1-(10-Butoxydecyl)-1H-imidazo[4,5-c]pyridine]",14.5
6,"CCCCCCOCCCCCCCCNc1ccncn1 [AU, N-[8-(Hexyloxy)octyl]pyrimidin-4-amine]",16.3
7,"CCCCCCOCCCCCCCCNc1cc(C)nc2ccccc12 [AV, N-[8-(Hexyloxy)octyl]-2-methylquinolin-4-amine]",13.4

# Test system: S. cerevisiae
# Assay: Example I: Saccharomyces cerevisiae growth inhibition (OD 600 nm)
# Format: cell-based
# Conditions: Saccharomyces cerevisiae, read-out: IC50, uM (50% inhibition of fungal growth); 18 hour incubation at 30° C., OD 600 nm, XLfit
row,Compound,IC50 [µM]
1,"CCCCOCCCCCCCCCCNc1ccnc2ccccc12 [AM, N-(10-Butoxydecyl)quinolin-4-amine]",13.4
2,"CCCCCCOCCCCCCCCn1cnc2cnccc21 [AS, 1-[8-(Hexyloxy)octyl]-1H-imidazo[4,5-c]pyridine]",38.5
3,"CCCCCCOCCCCCCCCNc1ccncn1 [AU, N-[8-(Hexyloxy)octyl]pyrimidin-4-amine]",18
4,"CCCCCCOCCCCCCCCNc1cc(C)nc2ccccc12 [AV, N-[8-(Hexyloxy)octyl]-2-methylquinolin-4-amine]",19.7

# Same assay, conditions: Saccharomyces cerevisiae; 18 hour incubation at 30° C., OD 600 nm, XLfit; read-out: MIC, uM (99% of inhibition of fungal growth)
row,Compound,MIC [µM]
1,"CCCCOCCCCCCCCCCNc1ccnc2ccccc12 [AM, N-(10-Butoxydecyl)quinolin-4-amine]",18.9
2,"CCCCCCOCCCCCCCCn1cnc2cnccc21 [AS, 1-[8-(Hexyloxy)octyl]-1H-imidazo[4,5-c]pyridine]",48.9
3,"CCCCCCOCCCCCCCCNc1ccncn1 [AU, N-[8-(Hexyloxy)octyl]pyrimidin-4-amine]",24.3
4,"CCCCCCOCCCCCCCCNc1cc(C)nc2ccccc12 [AV, N-[8-(Hexyloxy)octyl]-2-methylquinolin-4-amine]",19.8

# Test system: Cryptococcus neoformans (serotype D)
# Assay: Example K: Cryptococcus neoformans (serotype D) growth inhibition
# Format: cell-based
# Conditions: Cryptococcus deneoformans, read-out: IC50 (concentration for 50% of inhibition); OD of 48 hour reading, 37° C., tested 4 to 60 μM, XLfit
row,Compound,IC50 [µM]
1,"CCCCCCOc1ccc(CNc2ccnc3ccccc23)cc1 [AA, N-[4-(Hexyloxy)benzyl]quinolin-4-amine]",3.34
2,"c1ccc(Oc2cccc(CNc3ccnc4ccccc34)c2)cc1 [AF, N-(3-Phenoxybenzyl)quinolin-4-amine]",5.18
3,"CCCCOCCCCCCCCCCNc1ccnc2ccccc12 [AM, N-(10-Butoxydecyl)quinolin-4-amine]",3.32
4,"CCCCCCOCCCCCCCCn1cnc2cnccc21 [AS, 1-[8-(Hexyloxy)octyl]-1H-imidazo[4,5-c]pyridine]",1.46
5,"CCCCOCCCCCCCCCCn1cnc2cnccc21 [AT, 1-(10-Butoxydecyl)-1H-imidazo[4,5-c]pyridine]",1.29
6,"CCCCCCOCCCCCCCCNc1ccncn1 [AU, N-[8-(Hexyloxy)octyl]pyrimidin-4-amine]",1.63
7,"CCCCCCOCCCCCCCCNc1cc(C)nc2ccccc12 [AV, N-[8-(Hexyloxy)octyl]-2-methylquinolin-4-amine]",5.12

# Same assay, conditions: Cryptococcus deneoformans; OD of 48 hour reading, 37° C., tested 4 to 60 μM, XLfit; read-out: MIC (concentration for maximum-99% of inhibition)
row,Compound,MIC [µM]
1,"CCCCCCOc1ccc(CNc2ccnc3ccccc23)cc1 [AA, N-[4-(Hexyloxy)benzyl]quinolin-4-amine]",40.5
2,"c1ccc(Oc2cccc(CNc3ccnc4ccccc34)c2)cc1 [AF, N-(3-Phenoxybenzyl)quinolin-4-amine]",55.9
3,"CCCCOCCCCCCCCCCNc1ccnc2ccccc12 [AM, N-(10-Butoxydecyl)quinolin-4-amine]",13.3
4,"CCCCCCOCCCCCCCCn1cnc2cnccc21 [AS, 1-[8-(Hexyloxy)octyl]-1H-imidazo[4,5-c]pyridine]",26.8
5,"CCCCOCCCCCCCCCCn1cnc2cnccc21 [AT, 1-(10-Butoxydecyl)-1H-imidazo[4,5-c]pyridine]",41.8
6,"CCCCCCOCCCCCCCCNc1ccncn1 [AU, N-[8-(Hexyloxy)octyl]pyrimidin-4-amine]",14.4
7,"CCCCCCOCCCCCCCCNc1cc(C)nc2ccccc12 [AV, N-[8-(Hexyloxy)octyl]-2-methylquinolin-4-amine]",22.9

# Test system: PC-3 prostate cancer cells
# Assay: Example T: sensitisation of PC-3 cells to doxorubicin, oxaliplatin, paclitaxel or vincristine, Wst1
# Format: cell-based, human
# Conditions: Homo sapiens; PC-3 cells; compound 0.4 μM alone; 72 hours; Wst1; vehicle = 100; read-out: No Chemo: percent cell survival
row,Compound,viability at 0.4 µM [%]
1,"c1ccc(Oc2cccc(CNc3ccnc4ccccc34)c2)cc1 [AF, N-(3-Phenoxybenzyl)quinolin-4-amine]",19.1
2,"CCCCOCCCCCCCCCCNc1ccnc2ccccc12 [AM, N-(10-Butoxydecyl)quinolin-4-amine]",58.5
3,"CCCCOCCCCCCCCCCn1cnc2cnccc21 [AT, 1-(10-Butoxydecyl)-1H-imidazo[4,5-c]pyridine]",34.6

# Same assay, conditions: Homo sapiens; PC-3 cells; compound 1.5 μM alone; 72 hours; Wst1; vehicle = 100; read-out: No Chemo: percent cell survival
row,Compound,viability at 1.5 µM [%]
1,"CCCCCCOc1ccc(CNc2ccnc3ccccc23)cc1 [AA, N-[4-(Hexyloxy)benzyl]quinolin-4-amine]",82.6

# Same assay, conditions: Homo sapiens; PC-3 cells; compound 2.5 μM alone; 72 hours; Wst1; vehicle = 100; read-out: No Chemo: percent cell survival
row,Compound,viability at 2.5 µM [%]
1,"CCCCCCOCCCCCCCCn1cnc2cnccc21 [AS, 1-[8-(Hexyloxy)octyl]-1H-imidazo[4,5-c]pyridine]",31.1
2,"CCCCCCOCCCCCCCCNc1ccncn1 [AU, N-[8-(Hexyloxy)octyl]pyrimidin-4-amine]",32.4
3,"CCCCCCOCCCCCCCCNc1cc(C)nc2ccccc12 [AV, N-[8-(Hexyloxy)octyl]-2-methylquinolin-4-amine]",38.2

# Same assay, conditions: PC-3 cells; compound 0.4 μM + doxorubicin 3.5 μM; 72 hours; chemotherapy agent alone normalized to 100%
row,Compound,Doxorubicin 3.5 μM: percent cell survival [%]
1,"c1ccc(Oc2cccc(CNc3ccnc4ccccc34)c2)cc1 [AF, N-(3-Phenoxybenzyl)quinolin-4-amine]",35
2,"CCCCOCCCCCCCCCCNc1ccnc2ccccc12 [AM, N-(10-Butoxydecyl)quinolin-4-amine]",24.7
3,"CCCCOCCCCCCCCCCn1cnc2cnccc21 [AT, 1-(10-Butoxydecyl)-1H-imidazo[4,5-c]pyridine]",65.4

# Same assay, conditions: PC-3 cells; compound 0.4 μM + oxaliplatin 100 μM; 72 hours; chemotherapy agent alone normalized to 100%
row,Compound,Oxaliplatin 100 μM: percent cell survival [%]
1,"c1ccc(Oc2cccc(CNc3ccnc4ccccc34)c2)cc1 [AF, N-(3-Phenoxybenzyl)quinolin-4-amine]",32.4
2,"CCCCOCCCCCCCCCCNc1ccnc2ccccc12 [AM, N-(10-Butoxydecyl)quinolin-4-amine]",25.4
3,"CCCCOCCCCCCCCCCn1cnc2cnccc21 [AT, 1-(10-Butoxydecyl)-1H-imidazo[4,5-c]pyridine]",76.8

# Same assay, conditions: PC-3 cells; compound 0.4 μM + paclitaxel 50 μM; 72 hours; chemotherapy agent alone normalized to 100%
row,Compound,Paclitaxel 50 μM: percent cell survival [%]
1,"c1ccc(Oc2cccc(CNc3ccnc4ccccc34)c2)cc1 [AF, N-(3-Phenoxybenzyl)quinolin-4-amine]",25.2
2,"CCCCOCCCCCCCCCCNc1ccnc2ccccc12 [AM, N-(10-Butoxydecyl)quinolin-4-amine]",54.8
3,"CCCCOCCCCCCCCCCn1cnc2cnccc21 [AT, 1-(10-Butoxydecyl)-1H-imidazo[4,5-c]pyridine]",57.4

# Same assay, conditions: PC-3 cells; compound 0.4 μM + vincristine 100 nM; 72 hours; chemotherapy agent alone normalized to 100%
row,Compound,Vincristine 100 nM: percent cell survival [%]
1,"c1ccc(Oc2cccc(CNc3ccnc4ccccc34)c2)cc1 [AF, N-(3-Phenoxybenzyl)quinolin-4-amine]",22.6
2,"CCCCOCCCCCCCCCCNc1ccnc2ccccc12 [AM, N-(10-Butoxydecyl)quinolin-4-amine]",26
3,"CCCCOCCCCCCCCCCn1cnc2cnccc21 [AT, 1-(10-Butoxydecyl)-1H-imidazo[4,5-c]pyridine]",32.9

# Same assay, conditions: PC-3 cells; compound 1.5 μM + doxorubicin 3.5 μM; 72 hours; chemotherapy agent alone normalized to 100%
row,Compound,Doxorubicin 3.5 μM: percent cell survival [%]
1,"CCCCCCOc1ccc(CNc2ccnc3ccccc23)cc1 [AA, N-[4-(Hexyloxy)benzyl]quinolin-4-amine]",38.6

# Same assay, conditions: PC-3 cells; compound 1.5 μM + oxaliplatin 100 μM; 72 hours; chemotherapy agent alone normalized to 100%
row,Compound,Oxaliplatin 100 μM: percent cell survival [%]
1,"CCCCCCOc1ccc(CNc2ccnc3ccccc23)cc1 [AA, N-[4-(Hexyloxy)benzyl]quinolin-4-amine]",31

# Same assay, conditions: PC-3 cells; compound 1.5 μM + paclitaxel 50 μM; 72 hours; chemotherapy agent alone normalized to 100%
row,Compound,Paclitaxel 50 μM: percent cell survival [%]
1,"CCCCCCOc1ccc(CNc2ccnc3ccccc23)cc1 [AA, N-[4-(Hexyloxy)benzyl]quinolin-4-amine]",22.2

# Same assay, conditions: PC-3 cells; compound 1.5 μM + vincristine 100 nM; 72 hours; chemotherapy agent alone normalized to 100%
row,Compound,Vincristine 100 nM: percent cell survival [%]
1,"CCCCCCOc1ccc(CNc2ccnc3ccccc23)cc1 [AA, N-[4-(Hexyloxy)benzyl]quinolin-4-amine]",43

# Same assay, conditions: PC-3 cells; compound 2.5 μM + doxorubicin 3.5 μM; 72 hours; chemotherapy agent alone normalized to 100%
row,Compound,Doxorubicin 3.5 μM: percent cell survival [%]
1,"CCCCCCOCCCCCCCCn1cnc2cnccc21 [AS, 1-[8-(Hexyloxy)octyl]-1H-imidazo[4,5-c]pyridine]",51.1
2,"CCCCCCOCCCCCCCCNc1ccncn1 [AU, N-[8-(Hexyloxy)octyl]pyrimidin-4-amine]",25.7
3,"CCCCCCOCCCCCCCCNc1cc(C)nc2ccccc12 [AV, N-[8-(Hexyloxy)octyl]-2-methylquinolin-4-amine]",62.6

# Same assay, conditions: PC-3 cells; compound 2.5 μM + oxaliplatin 100 μM; 72 hours; chemotherapy agent alone normalized to 100%
row,Compound,Oxaliplatin 100 μM: percent cell survival [%]
1,"CCCCCCOCCCCCCCCn1cnc2cnccc21 [AS, 1-[8-(Hexyloxy)octyl]-1H-imidazo[4,5-c]pyridine]",55.5
2,"CCCCCCOCCCCCCCCNc1ccncn1 [AU, N-[8-(Hexyloxy)octyl]pyrimidin-4-amine]",41.1
3,"CCCCCCOCCCCCCCCNc1cc(C)nc2ccccc12 [AV, N-[8-(Hexyloxy)octyl]-2-methylquinolin-4-amine]",59.3

# Same assay, conditions: PC-3 cells; compound 2.5 μM + paclitaxel 50 μM; 72 hours; chemotherapy agent alone normalized to 100%
row,Compound,Paclitaxel 50 μM: percent cell survival [%]
1,"CCCCCCOCCCCCCCCn1cnc2cnccc21 [AS, 1-[8-(Hexyloxy)octyl]-1H-imidazo[4,5-c]pyridine]",36.8
2,"CCCCCCOCCCCCCCCNc1ccncn1 [AU, N-[8-(Hexyloxy)octyl]pyrimidin-4-amine]",34.2
3,"CCCCCCOCCCCCCCCNc1cc(C)nc2ccccc12 [AV, N-[8-(Hexyloxy)octyl]-2-methylquinolin-4-amine]",34.4

# Same assay, conditions: PC-3 cells; compound 2.5 μM + vincristine 100 nM; 72 hours; chemotherapy agent alone normalized to 100%
row,Compound,Vincristine 100 nM: percent cell survival [%]
1,"CCCCCCOCCCCCCCCn1cnc2cnccc21 [AS, 1-[8-(Hexyloxy)octyl]-1H-imidazo[4,5-c]pyridine]",30.8
2,"CCCCCCOCCCCCCCCNc1ccncn1 [AU, N-[8-(Hexyloxy)octyl]pyrimidin-4-amine]",32
3,"CCCCCCOCCCCCCCCNc1cc(C)nc2ccccc12 [AV, N-[8-(Hexyloxy)octyl]-2-methylquinolin-4-amine]",37.2
